Experimental data from patent US20250332300A1 (priority 2024, published 2025).
Structures can show the parent of a compound that is named as a salt. Where two headings read alike, the source gives them in different places. Starred links: 1 amine or outer side, 2 acyl side, 3 side chain; linkers in the order of their positions; H or OH if unused. Positions of bridges follow the written chain, without caps; N, C: chain ends. Non-standard residues stand in square brackets, D forms with d. Residues, ends and D or L forms follow the SMILES beside them. Groups on a side chain read outwards from the residue. *: point of attachment. DOTA = O=C(O)CN1CCN(CC(=O)O)CCN(CC(=O)*)CCN(CC(=O)O)CC1; Trp(5-OH) = N[C@@H](Cc1c[nH]c2ccc(O)cc12)C(=O)O; Piperazinyl(4-CH2COOH) = O=C(O)CN1CCN(*)CC1; NMePhe(4-F) = CN[C@@H](Cc1ccc(F)cc1)C(=O)O; NMehPhe = CN[C@@H](CCc1ccccc1)C(=O)O; NMeE = CN[C@@H](CCC(=O)O)C(=O)O; Aad = N[C@@H](CCCC(=O)O)C(=O)O; Gly(cPr) = N[C@H](C(=O)O)C1CC1; Aoc(2) = CCCCCC[C@H](N)C(=O)O; NMeK = CN[C@@H](CCCCN)C(=O)O; NMeDap = CN[C@@H](CN)C(=O)O; NMeC = CN[C@@H](CS)C(=O)O; NMeS = CN[C@@H](CO)C(=O)O; hCys = N[C@@H](CCS)C(=O)O; Dap = NC[C@H](N)C(=O)O; CO = O=C([*:1])[*:2]

Tests used:
Type in all cases: binding
[1] = target: T1, human HER2 (23-652) (Homo sapiens, UniProt P04626); assay: Surface plasmon resonance (SPR) for assessment of peptide affinity, human HER2; set-up: towards human HER2 (23-652) and mouse HER2 (23-653); made in house
Method in brief: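 Binding kinetics fitted from sensorgrams with 280 s peptide association then 3000 s dissociation (30 uL/min), using HER2 (23-652) either directly immobilized (SA/CM5) or anti-Fc-captured; 3 M magnesium chloride used for regeneration.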

[2] = target: T1, human HER2 (23-652); assay: TR-FRET competition assay for peptide potency, human HER2; set-up: towards human HER2 (23-652) and mouse HER2 (23-653); made in house; host or cells: mammalian cells
[3] = target: T2, mouse HER2 (23-653) (Mus musculus, UniProt P70424); assay: Surface plasmon resonance (SPR) for assessment of peptide affinity, mouse HER2; set-up: mouse HER2 (23-653) using a Cy5 labeled peptide as a probe; made in house; conditions: SPR, mouse HER2 extracellular domain, 25° C., 1:1 binding model; for Kd: read-out: moHER2-SPR-ONC KD
From the text: Each protein was immobilized either onto a SA sensorchip (Cytiva, BR-1005-31) or CM5 sensorchip (Cytiva, BR-1005-30) to a density of 800-2000 RU.

[4] = target: T2, mouse HER2 (23-653); assay: TR-FRET competition assay for peptide potency, mouse HER2; set-up: mouse HER2 (23-653) using a Cy5 labeled peptide as a probe; made in house; host or cells: mammalian cells
[5] = huHER2 TR-FRET IC50, TR-FRET competition with Cy5 labeled peptide probe, 0.1 nM human HER2, 24 h incubation
[6] = TR-FRET competition with Cy5 labeled peptide probe, 0.1 nM mouse HER2, 24 h incubation, read-out: moHER2 TR-FRET IC50
[7] = SPR, human HER2 extracellular domain, 25° C., 1:1 binding model, read-out: huHER2-SPR-ONC KD

IC50 [4, 6] [nM] | Kd [1, 7] [nM] | IC50 ([2]; read-out: huHER2 TR-FRET IC50) [nM] | huHER2-SPR-ONC KD ([1]; SPR, human HER2 extracellular domain, 25° C., 1:1 binding model) | moHER2-SPR-ONC KD [3] | IC50 ([2]; TR-FRET competition with Cy5 labeled peptide probe, 0.1 nM human HER2, 24 h incubation, read-out: huHER2 TR-FRET IC50) [nM] | IC50 ([2]; value in parentheses (**): recalculated after further repetition, read-out: huHER2 TR-FRET IC50, recalculated value achieved after further repetition) [nM] | IC50 ([4]; value in parentheses (**): recalculated after further repetition, read-out: moHER2 TR-FRET IC50, recalculated value achieved after further repetition) [nM] | SMILES | Kd [1] [nM] | IC50 [2, 5] [nM] | Kd [3] [nM]
> 1000 | 2000 | > 1000 | – | – | – | – | – | CN1C(=O)[C@H](CO)NC(=O)[C@H](Cc2ccc(O)cc2)NC(=O)[C@@H](N)CCSSC[C@@H](C(=O)N(C)[C@@H](Cc2ccc(F)cc2)C(N)=O)N(C)C(=O)[C@H](C2CC2)NC(=O)[C@H](Cc2c[nH]c3ccccc23)NC(=O)[C@H](Cc2c[nH]c3ccc(O)cc23)NC(=O)[C@H](CO)N(C)C(=O)[C@@H]1CCc1ccccc1 [Example A57, (4R,7S,10S,13S,16S,19S,22S,25S,28S)-10-((1H-indol-3-yl)methyl)-28-amino-N-((S)-1-amino-3-(4-fluorophenyl)-1-oxopropan-2-y1)-7-cyclopropyl-13-((5-hydroxy-1H-indol-3-y1)methyl)-25-(4-hydroxybenzyl)-16,22-bis(hydroxymethyl)-N,5,17,20-tetramethyl-6,9,12,15,18,21,24,27-octaoxo-19-phenethyl-1,2-dithia-5,8,11,14,17,20,23,26-octaazacyclotriacontane-4-carboxamide TFA salt] (H-[hCys]YS[NMehPhe][NMeS][Trp(5-OH)]W[Gly(cPr)][NMeC][NMePhe(4-F)]-NH2; disulfide 1-9) | – | – | 1460
< 0.1 | < 0.1 | < 0.1 | – | – | – | – | – | CC(=O)NCCCC[C@H]1C(=O)N[C@@H](Cc2c[nH]c3ccc(O)cc23)C(=O)N[C@@H](Cc2c[nH]c3ccccc23)C(=O)N[C@@H](C2CC2)C(=O)N(C)[C@H](C(=O)N(C)[C@@H](Cc2ccc(F)cc2)C(=O)N[C@@H](CCCCNC(=O)CCC(C(=O)O)N2CCN(CC(=O)O)CCN(CC(=O)O)CC2)C(N)=O)CNC(=O)CCC[C@H](NC(C)=O)C(=O)N[C@@H](Cc2ccc(O)cc2)C(=O)N[C@@H](CO)C(=O)N(C)[C@@H](CCc2ccccc2)C(=O)N1C (some centres unmarked) [Example B13] | – | – | < 0.1
> 1000 | – | > 1000 | no binding* | no binding* | – | – | – | CC(=O)N[C@H]1CNC(=O)CC[C@@H](C(=O)N(C)[C@@H](Cc2ccc(F)cc2)C(N)=O)N(C)C(=O)[C@H](C2CC2)NC(=O)[C@H](Cc2c[nH]c3ccccc23)NC(=O)[C@H](Cc2c[nH]c3ccc(O)cc23)NC(=O)[C@H](CO)N(C)C(=O)[C@H](CCc2ccccc2)N(C)C(=O)[C@H](CO)NC(=O)[C@H](Cc2ccc(O)cc2)NC1=O [Example A19, (3S,6S,9S,12S,15S,18S,21S,24S,30S)-6-((1H-indol-3-yl)methyl)-24-acetamido-N-((S)-1-amino-3-(4-fluorophenyl)-1-oxopropan-2-yl)-3-cyclopropyl-9-((5-hydroxy-1H-indol-3-yl)methyl)-21-(4-hydroxybenzyl)-12,18-bis(hydroxymethyl)-N,1,13,16-tetramethyl-2,5,8,11,14,17,20,23,27-nonaoxo-15-phenethyl-1,4,7,10,13,16,19,22,26-nonaazacyclotriacontane-30-carboxamide] (Ac-[Dap]YS[NMehPhe][NMeS][Trp(5-OH)]W[Gly(cPr)][NMeE][NMePhe(4-F)]-NH2; lactam 1-9) | – | – | –
422 | 1150 | – | – | – | 236 | 164 | 434 | CC(=O)NCCCC[C@H]1C(=O)N[C@@H](Cc2c[nH]c3ccc(O)cc23)C(=O)N[C@@H](Cc2c[nH]c3ccccc23)C(=O)N[C@@H](C2CC2)C(=O)N(C)[C@H](C(=O)N(C)[C@@H](Cc2ccc(F)cc2)C(=O)N[C@@H](CCCCNC(=O)CN2CCN(CC(=O)O)CCN(CC(=O)O)CCN(CC(=O)O)CC2)C(N)=O)CNC(=O)CCC[C@H](NC(C)=O)C(=O)N[C@@H](Cc2ccc(O)cc2)C(=O)N[C@@H](CCCCNC(=O)N2CCN(CC(=O)O)CC2)C(=O)N(C)[C@@H](CCc2ccccc2)C(=O)N1C [Example C7] (Ac-[Aad]YK([CO-Piperazinyl(4-CH2COOH)])[NMehPhe][NMeK](Ac)[Trp(5-OH)]W[Gly(cPr)][NMeDap][NMePhe(4-F)]K(DOTA)-NH2; lactam 1-9) | – | – | 799
> 1000 | > 6000 | > 1000 | – | – | – | – | – | CCCCCC[C@@H]1NC(=O)[C@H](Cc2c[nH]c3ccc(O)cc23)NC(=O)[C@H](CCCCNC(C)=O)N(C)C(=O)[C@H](CCc2ccccc2)N(C)C(=O)[C@H](CO)NC(=O)[C@H](Cc2ccc(O)cc2)NC(=O)[C@@H](NC(C)=O)CCCC(=O)NC[C@@H](C(=O)N(C)[C@@H](Cc2ccc(F)cc2)C(N)=O)N(C)C(=O)[C@H](C2CC2)NC1=O [Example A18, (3S,6S,9S,12S,15S,18S,21S,24S,27S)-27-acetamido-15-(4-acetamidobutyl)-N-((S)-1-amino-3-(4-fluorophenyl)-1-oxopropan-2-yl)-6-cyclopropyl-9-hexyl-12-((5-hydroxy-1H-indol-3-yl)methyl)-24-(4-hydroxybenzyl)-21-(hydroxymethyl)-N,4,16,19-tetramethyl-5,8,11,14,17,20,23,26,31-nonaoxo-18-phenethyl-1,4,7,10,13,16,19,22,25-nonaazacyclohentriacontane-3-carboxamide] (Ac-[Aad]YS[NMehPhe][NMeK](Ac)[Trp(5-OH)][Aoc(2)][Gly(cPr)][NMeDap][NMePhe(4-F)]-NH2; lactam 1-9) | – | – | > 6000

SMILES | IC50 [4, 6] [nM] | Kd [1, 7] [nM] | IC50 ([2]; read-out: huHER2 TR-FRET IC50) [nM] | huHER2-SPR-ONC KD ([1]; SPR, human HER2 extracellular domain, 25° C., 1:1 binding model) | moHER2-SPR-ONC KD [3] | IC50 ([2]; TR-FRET competition with Cy5 labeled peptide probe, 0.1 nM human HER2, 24 h incubation, read-out: huHER2 TR-FRET IC50) [nM] | IC50 ([2]; value in parentheses (**): recalculated after further repetition, read-out: huHER2 TR-FRET IC50, recalculated value achieved after further repetition) [nM] | IC50 ([4]; value in parentheses (**): recalculated after further repetition, read-out: moHER2 TR-FRET IC50, recalculated value achieved after further repetition) [nM] | Kd [1] [nM] | IC50 [2, 5] [nM] | Kd [3] [nM]
CN1C(=O)[C@H](CO)NC(=O)[C@H](Cc2ccc(O)cc2)NC(=O)[C@@H](N)CSSC[C@@H](C(=O)N(C)[C@@H](Cc2ccc(F)cc2)C(N)=O)N(C)C(=O)[C@H](C2CC2)NC(=O)[C@H](Cc2c[nH]c3ccccc23)NC(=O)[C@H](Cc2c[nH]c3ccc(O)cc23)NC(=O)[C@H](CO)N(C)C(=O)[C@@H]1CCc1ccccc1 [Example A54, (4R,7S,10S,13S,16S,19S,22S,25S,28R)-10-((1H-indol-3-yl)methyl)-28-amino-N—((S)-1-amino-3-(4-fluorophenyl)-1-oxopropan-2-yl)-7-cyclopropyl-13-((5-hydroxy-1H-indol-3-yl)methyl)-25-(4-hydroxybenzyl)-16,22-bis(hydroxymethyl)-N,5,17,20-tetramethyl-6,9,12,15,18,21,24,27-octaoxo-19-phenethyl-1,2-dithia-5,8,11,14,17,20,23,26-octaazacyclononacosane-4-carboxamide TFA salt] (H-CYS[NMehPhe][NMeS][Trp(5-OH)]W[Gly(cPr)][NMeC][NMePhe(4-F)]-NH2; disulfide 1-9) | > 1000 | – | – | – | – | – | – | – | 1710 | > 1000 | 5310
CC(=O)NCCCC[C@H]1C(=O)N[C@@H](Cc2c[nH]c3ccc(O)cc23)C(=O)N[C@@H](C)C(=O)N[C@@H](C2CC2)C(=O)N(C)[C@H](C(=O)N(C)[C@@H](Cc2ccc(F)cc2)C(=O)N[C@@H](CCCCNC(=O)CN2CCN(CC(=O)O)CCN(CC(=O)O)CCN(CC(=O)O)CC2)C(N)=O)CNC(=O)CCC[C@H](NC(C)=O)C(=O)N[C@@H](Cc2ccc(O)cc2)C(=O)N[C@@H](CO)C(=O)N(C)[C@@H](CCc2ccccc2)C(=O)N1C [Example B3] (Ac-[Aad]YS[NMehPhe][NMeK](Ac)[Trp(5-OH)]A[Gly(cPr)][NMeDap][NMePhe(4-F)]K(DOTA)-NH2; lactam 1-9) | > 1000 | > 6000 | > 1000 | – | – | – | – | – | – | – | > 6000
CC(=O)NCCCC[C@H]1C(=O)N[C@@H](Cc2c[nH]c3ccc(O)cc23)C(=O)N[C@@H](Cc2c[nH]c3ccccc23)C(=O)N[C@@H](C2CC2)C(=O)N(C)[C@H](C(=O)N(C)[C@@H](Cc2ccc(F)cc2)C(=O)N[C@@H](CCCCN)C(N)=O)CNC(=O)CCC[C@H](NC(C)=O)C(=O)N[C@@H](Cc2ccc(O)cc2)C(=O)N[C@@H](CO)C(=O)N(C)[C@@H](CCc2ccccc2)C(=O)N1C [Example A40, TFA salt] | 0.2 | – | – | – | – | – | – | – | < 0.1 | < 0.1 | < 0.1
CC(=O)NCCCC[C@H]1C(=O)N[C@@H](Cc2c[nH]c3ccc(O)cc23)C(=O)N[C@H](Cc2c[nH]c3ccccc23)C(=O)N[C@@H](C2CC2)C(=O)N(C)[C@H](C(=O)N(C)[C@@H](Cc2ccc(F)cc2)C(=O)N[C@@H](CCCCNC(=O)CN2CCN(CC(=O)O)CCN(CC(=O)O)CCN(CC(=O)O)CC2)C(N)=O)CNC(=O)CCC[C@H](NC(C)=O)C(=O)N[C@@H](Cc2ccc(O)cc2)C(=O)N[C@@H](CO)C(=O)N(C)[C@@H](CCc2ccccc2)C(=O)N1C [Example B9] | > 1000 | 5110 | > 1000 | – | – | – | – | – | – | – | > 6000
